The source of these data is patent US20240376097A1, “BCL-2 Inhibitor” (BeiGene Ltd., priority 2020, published 2024).

Test [1] concerns the target Recombinant human Bcl-2 protein (Homo sapiens (Human), UniProt P10415). Kind of test: Bcl-2 TR-FRET Assay. It counts as binding. The note with it: Bcl-2 wild type, TR-FRET; read-out: Biochemical assay (IC50, nM) Bcl-2 WT. The method in brief:
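In pH 7.5 phosphate buffer containing NaCl, EDTA, Tween-20 and BSA, 0.05 nM Bcl-2 saw serially diluted compound for 0.5 h before 0.5 nM FITC-Bak peptide was added. Signal ratio at 520/490 nm after 1 h yielded IC50.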
For orientation: In TR-FRET formats the signal depends on donor and acceptor labels being close together.

For test [2], the system named is BCL-2 G101V knock-in cell line H96 (derive from RS4;11). In words: Bcl 2-G101V Knock-In RS4;11 Cell Proliferation Assay. The format is cell-based. The note with it: Homo sapiens, RS4;11 Bcl-2 G101V knock-in clone H96, 48 hrs, CellTiter-GLO, read-out: Cellular proliferation assay (IC50, nM) RS4. Put shortly: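 CellTiter-Glo luminescence after 48 h, 37 °C compound treatment (10 concentrations, maximum 1 μM or 10 μM) gave mean IC50 values. Cells were 50,000 per well of H96, a BCL2-G101V knock-in single clone derived from RS4;11 by Cas9 editing.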
(In general: ATP-based viability assays read luminescence as a measure of living cells.)

Test [3] addresses recombinant human Bcl-2-G101V protein (Homo sapiens (Human), UniProt P10415, G101V). Kind of test: Bcl-2-G101V TR-FRET Assay. It counts as binding. The note with it: Bcl-2 G101V mutant, TR-FRET; read-out: Biochemical assay (IC50, nM) Bcl-2 G101V. Put shortly: (§1)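 TR-FRET read at excitation 337 nm with emission at 490 nm and 520 nm. Inhibition of Bcl-2-G101V binding to its ligand across increasing compound concentrations was calculated from the 490/520 nm fluorescence ratio, and IC50 values came from four-parameter logistic fits.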

The test system of test [4] is recombinant human Bcl-2-G101V protein. Kind of test: Bcl-2-G101V TR-FRET Assay. The note with it: ratio of biochemical IC50 Bcl-2 G101V / Bcl-2 WT. The format is binding. The method in brief: as §1
Test [5] concerns RS4;11 (BCL-2 dependent acute lymphoblastic leukemia cell line). Kind of test: RS4;11 Cell Proliferation Assay. The format is cell-based. The note with it: Homo sapiens, RS4-11, RS4;11 cells, read-out: Cellular proliferation assay (IC50, nM) RS4. Put shortly:
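Viability measured via CellTiter-Glo luminescence after a 48 h, 37 °C exposure to compounds (10 points, highest 1 μM). Seeding was 50,000 RS4;11 cells per well in 10% FBS RPMI-1640; IC50 given as mean.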

On to `CC(C)c1ccccc1C1CN(Cc2ccc3c(c2)CCCC3)CCN1C1CC2(CCN(c3ccc(C(=O)NS(=O)(=O)c4ccc(NC[C@H]5CC[C@](C)(O)CC5)c([N+](=O)[O-])c4)c(Oc4cnc5[nH]ccc5c4)c3)CC2)C1` (some centres unmarked) [Example 54, 2-((1H-pyrrolo[2,3-b]pyridin-5-yl)oxy)-N-((4-((((1r,4r)-4-hydroxy-4-methylcyclohexyl)methyl)amino)-3-nitrophenyl)sulfonyl)-4-(2-(2-(2-isopropylphenyl)-4-((5,6,7,8-tetrahydronaphthalen-2-yl)methyl)piperazin-1-yl)-7-azaspiro[3.5]nonan-7-yl)benzamide], for which the IC50 amounted to 0.76 nM in test [1], 11.7 nM in test [2], 4.7 nM in test [3] and 0.79 nM in test [5]. Further, the “Ratio of Bcl-2 G101V/WT” value in test [4] was 6.2.

In the case of `CC(C)c1ccccc1C1CN(CC2CCOc3ccccc32)CCN1C1CC2(CCN(c3ccc(C(=O)NS(=O)(=O)c4ccc(NC[C@H]5CC[C@](C)(O)CC5)c([N+](=O)[O-])c4)c(Oc4cnc5[nH]ccc5c4)c3)CC2)C1` (some centres unmarked) [Example 57, 2-((1H-pyrrolo[2,3-b]pyridin-5-yl)oxy)-4-(2-(4-(chroman-4-ylmethyl)-2-(2-isopropylphenyl)piperazin-1-yl)-7-azaspiro[3.5]nonan-7-yl)-N-((4-((((1r,4r)-4-hydroxy-4-methylcyclohexyl)methyl)amino)-3-nitrophenyl)sulfonyl)benzamide], the IC50 in test [1] came out at 0.44 nM; in test [2], 8.9 nM; in test [3] it was 2.2 nM; in test [5], 0.8 nM. The “Ratio of Bcl-2 G101V/WT” value in test [4] was 5.0.

`CC(C)c1ccccc1C1CN(C(=O)c2ccccc2)CCN1C1CC2(CCN(c3ccc(C(=O)NS(=O)(=O)c4ccc(NC[C@H]5CC[C@](C)(O)CC5)c([N+](=O)[O-])c4)c(Oc4cnc5[nH]ccc5c4)c3)CC2)C1` (some centres unmarked) [Example 60]: the IC50 in test [1] was determined as 0.057 nM; in test [2], 2.52 nM; in test [3], 1.6 nM; in test [5], 0.35 nM. The “Ratio of Bcl-2 G101V/WT” value in test [4] is 28.1.

Regarding `CC(C)c1ccccc1C1CN(S(=O)(=O)c2ccccc2)CCN1C1CC2(CCN(c3ccc(C(=O)NS(=O)(=O)c4ccc(NC[C@H]5CC[C@](C)(O)CC5)c([N+](=O)[O-])c4)c(Oc4cnc5[nH]ccc5c4)c3)CC2)C1` (some centres unmarked) [Example 62, 2-((1H-pyrrolo[2,3-b]pyridin-5-yl)oxy)-N-((4-((((1r,4r)-4-hydroxy-4-methylcyclohexyl)methyl)amino)-3-nitrophenyl)sulfonyl)-4-(2-(2-(2-isopropylphenyl)-1-(phenylsulfonyl)piperazin-1-yl)-7-azaspiro[3.5]nonan-7-yl) benzamide], the IC50 was determined as 0.33 nM in test [1], 28.4 nM in test [2], 13 nM in test [3] and 2.4 nM in test [5]. Further, the “Ratio of Bcl-2 G101V/WT” value in test [4] turned out to be 39.4.

Regarding `CC(C)c1ccccc1C1CN(S(C)(=O)=O)CCN1C1CC2(CCN(c3ccc(C(=O)NS(=O)(=O)c4ccc(NC[C@H]5CC[C@](C)(O)CC5)c([N+](=O)[O-])c4)c(Oc4cnc5[nH]ccc5c4)c3)CC2)C1` (some centres unmarked) [Example 66, 2-((1H-pyrrolo[2,3-b]pyridin-5-yl)oxy)-N-((4-((((1r,4r)-4-hydroxy-4-methylcyclohexyl)methyl)amino)-3-nitrophenyl)sulfonyl)-4-(2-(2-(2-isopropylphenyl)-4-(methylsulfonyl)piperazin-1-yl)-7-azaspiro[3.5]nonan-7-yl) benzamide], the IC50 in test [1] is 0.034 nM; in test [2], 6.61 nM; in test [3] it was 1.6 nM; in test [5] it was 0.6 nM. In addition, in test [4], the “Ratio of Bcl-2 G101V/WT” value amounted to 47.1.

As for `CCc1ccccc1C1CN(Cc2ccc(OC)cc2)CCN1C1CC2(CCN(c3ccc(C(=O)NS(=O)(=O)c4ccc(NC[C@H]5CC[C@](C)(O)CC5)c([N+](=O)[O-])c4)c(Oc4cnc5[nH]ccc5c4)c3)CC2)C1` (some centres unmarked) [Example 76, 2-((1H-pyrrolo[2,3-b]pyridin-5-yl)oxy)-4-(2-(2-(2-ethylphenyl)-4-(4-methoxybenzyl)piperazin-1-yl)-7-azaspiro[3.5]nonan-7-yl)-N-((4-((((1r,4r)-4-hydroxy-4-methylcyclohexyl)methyl)amino)-3-nitrophenyl)sulfonyl)benzamide], the IC50 came out at 0.074 nM in test [1], 6.5 nM in test [2], 1.3 nM in test [3] and 0.69 nM in test [5]. Moreover, in test [4], the “Ratio of Bcl-2 G101V/WT” value is 17.

For `COc1ccc(CN2CCN(C3CC4(CCN(c5ccc(C(=O)NS(=O)(=O)c6ccc(NC[C@H]7CC[C@](C)(O)CC7)c([N+](=O)[O-])c6)c(Oc6cnc7[nH]ccc7c6)c5)CC4)C3)[C@@H](c3ccccc3C(C)C)C2)cc1OC` [Example 81b], the IC50 in test [1] came out at 0.074 nM; in test [2], 11.6 nM; in test [3] it was 2 nM; in test [5], 2.85 nM. Also, the “Ratio of Bcl-2 G101V/WT” value in test [4] was 27.

As to `COc1ccc(CN(C)C2CCN(C3CC4(CCN(c5ccc(C(=O)NS(=O)(=O)c6ccc(NC[C@H]7CC[C@](C)(O)CC7)c([N+](=O)[O-])c6)c(Oc6cnc7[nH]ccc7c6)c5)CC4)C3)C(c3ccccc3C3CC3)C2)cc1` (some centres unmarked) [Example 105, 2-((1H-pyrrolo[2,3-b]pyridin-5-yl)oxy)-4-(2-(2-(2-cyclopropylphenyl)-4-((4-methoxybenzyl)(methyl)amino)piperidin-1-yl)-7-azaspiro[3.5]nonan-7-yl)-N-((4-((((1r,4r)-4-hydroxy-4-methylcyclohexyl)methyl)amino)-3-nitrophenyl)sulfonyl)benzamide], the IC50 in test [1] worked out at 0.1 nM; in test [2] it was 16.6 nM; in test [3], 0.25 nM; in test [5], 2.12 nM. Also, in test [4], the “Ratio of Bcl-2 G101V/WT” value was 2.5.

For the molecule `CCc1cc(CN2CCN(C3CC4(CCN(c5ccc(C(=O)NS(=O)(=O)c6ccc(NC[C@H]7CC[C@](C)(O)CC7)c([N+](=O)[O-])c6)c(Oc6cnc7[nH]ccc7c6)c5)CC4)C3)C(c3ccccc3C(C)C)C2)ccc1OC` (some centres unmarked) [Example 116, 2-((1H-pyrrolo[2,3-b]pyridin-5-yl)oxy)-4-(2-(4-(3-ethyl-4-methoxybenzyl)-2-(2-isopropylphenyl)piperazin-1-yl)-7-azaspiro[3.5]nonan-7-yl)-N-((4-((((1r,4r)-4-hydroxy-4-methylcyclohexyl)methyl)amino)-3-nitrophenyl)sulfonyl)benzamide], the IC50 in test [1] worked out at 0.42 nM; in test [2] it was 4.76 nM; in test [3] it was 2 nM; in test [5], 0.58 nM. In addition, in test [4], the “Ratio of Bcl-2 G101V/WT” value is 4.7.

Consider `COc1c(Cl)cccc1CN1CCN(C2CC3(CCN(c4ccc(C(=O)NS(=O)(=O)c5ccc(NC[C@H]6CC[C@](C)(O)CC6)c([N+](=O)[O-])c5)c(Oc5cnc6[nH]ccc6c5)c4)CC3)C2)C(c2ccccc2C(C)C)C1` (some centres unmarked) [Example 119, 2-((1H-pyrrolo[2,3-b]pyridin-5-yl)oxy)-4-(2-(4-(3-chloro-2-methoxybenzyl)-2-(2-isopropylphenyl)piperazin-1-yl)-7-azaspiro[3.5]nonan-7-yl)-N-((4-((((1r,4r)-4-hydroxy-4-methylcyclohexyl)methyl)amino)-3-nitrophenyl)sulfonyl)benzamide], for which the IC50 in test [1] amounted to 0.37 nM; in test [2], 14.4 nM; in test [3] it was 3.1 nM; in test [5], 1.44 nM. The “Ratio of Bcl-2 G101V/WT” value in test [4] is given as 8.5.
